Results: US20240025906A1 (NEURON23, INC., priority 2022, published 2024)
Where two headings read alike, the source gives them in different places.

Assays:
TYK2 JH2 = target: T1, TYK2 JH2 (Homo sapiens, UniProt P29597); experiment: TYK2 JH2 binding assay (KINOMEscan KdELECT competitive binding); conditions: TYK2 JH2 domain
T1 construct: purchased DiscoverX (KINOMEscan KdELECT service); host or cells: E. coli BL21-derived (T7 phage display) or HEK-293
Method in brief: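 Test compounds were titrated in 11 three-fold steps against JH2 fragment captured on ligand-loaded magnetic beads, with 1 h incubation at room temperature and DMSO at 0.9%. Eluted kinase was quantified by qPCR, and Kd was fitted from the dose series.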

[1] = tested on: JAK1/TYK2 pSTAT5 (Tyr694/699) in THP-1 cell line; experiment: IFNa-stimulated JAK1/TYK2 pSTAT5 (Tyr694/699) inhibition cellular assay, AlphaLISA; assay type: cell-based; conditions: Homo sapiens, THP-1 cells, AlphaLISA (Assay B)
Method in brief: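 The readout is AlphaLISA signal at 615 nm for phospho-STAT5 in THP-1 lysates after IFNa stimulation (added at 100 ng/mL, 30 min, 37 °C). Cells had compound for 1 h beforehand across eight 6-fold concentrations up to 10000 nM final. IC50s are 4PL fits with bottom and Hill slope constrained.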

[2] = KINOMEscan KdELECT (Assay A), read-out: Biochemical TYK2_JH2_Kd
[3] = IFNa-stimulated, read-out: Cellular THP1_IFNa-pSTATS_IC50
[4] = KINOMEscan KdELECT (Assay A), read-out: Biochemical TYK2_DiscoverX_JH2_BND_Kd
[5] = DiscoverX KINOMEscan KdELECT (Assay A), read-out: Biochemical TYK2_DiscoverX_JH2_BND_Kd
[6] = IFNa-stimulated, read-out: Cellular_THP1_IFNa-pSTATS_TYK2

T1 sequence (P29597 589-875 limits assumed): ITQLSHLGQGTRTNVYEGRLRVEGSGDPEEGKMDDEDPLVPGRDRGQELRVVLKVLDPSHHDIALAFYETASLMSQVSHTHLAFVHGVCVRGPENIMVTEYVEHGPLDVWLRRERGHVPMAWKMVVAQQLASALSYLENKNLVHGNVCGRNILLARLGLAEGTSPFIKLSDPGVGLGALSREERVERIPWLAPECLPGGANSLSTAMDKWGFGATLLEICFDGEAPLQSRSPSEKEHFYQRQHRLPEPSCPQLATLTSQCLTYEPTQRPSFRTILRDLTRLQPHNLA

Kd (TYK2 JH2; [5])	IC50 [1, 6]	Compound	other results
		CNc1ncc(-c2ccn(Cc3ncn(C)n3)n2)c2cc(NC(=O)C3CC3)ncc12 [Example 150, N-(5-(1-((1-methyl-1H-1,2,4-triazol-3-yl)methyl)-1H-pyrazol-3-yl)-8-(methylamino)-2,7-naphthyridin-3-yl)cyclopropanecarboxamide]	Kd (TYK2 JH2; [2]): ≤ 0.1 µM; IC50 [1, 3]: > 0.5 µM
		CNc1ncc(C#Cc2ccc3c(c2)CCC3=O)c2cc(NC(=O)C3CC3)ncc12 [Example 1013, N-(8-(methylamino)-5-((1-oxo-2,3-dihydro-1H-inden-5-yl)ethynyl)-2,7-naphthyridin-3-yl)cyclopropanecarboxamide]	Kd (TYK2 JH2; [4]): ≤ 0.1 µM; IC50 ([1]; IFNa-stimulated pSTAT5 (Tyr694/699), read-out: Cellular_THP1_IFNa-pSTATS_TYK2): ≤ 0.5 µM
		CNc1nccc2cc(NC(=O)C3CC3)ncc12 [Example 2, N-(8-(methylamino)-2,7-naphthyridin-3-yl)cyclopropanecarboxamide]	Kd (TYK2 JH2; [2]): 0.1 to 1 µM; IC50 [1, 3]: > 0.5 µM
≤ 0.1 µM	≤ 0.5 µM	CNc1ncc(-c2nc3ccc(N4C[C@H]5C[C@@H]4CO5)cn3n2)c2cc(NC(=O)C3(F)CC3)ncc12 [Example 563, N-(5-(6-((1R,4R)-2-oxa-5-azabicyclo[2.2.1]heptan-5-yl)-[1,2,4]triazolo[1,5-a]pyridin-2-yl)-8-(methylamino)-2,7-naphthyridin-3-yl)-1-fluorocyclopropane-1-carboxamide]	
≤ 0.1 µM	≤ 0.5 µM	CNc1ncc(-c2nc3cc(OCC4COC4)ccc3o2)c2cc(NC(=O)C3CC3)ncc12 [Example 336, N-(8-(methylamino)-5-(5-(oxetan-3-ylmethoxy)benzo[d]oxazol-2-yl)-2,7-naphthyridin-3-yl)cyclopropanecarboxamide]	
≤ 0.1 µM	≤ 0.5 µM	CNc1ncc(-c2nc3cc(C4CCCO4)ccc3o2)c2cc(NC(=O)C3CC3)ncc12 (stereo not shown) [Example 343, N-(8-(methylamino)-5-(5-(tetrahydrofuran-2-yl)benzo[d]oxazol-2-yl)-2,7-naphthyridin-3-yl)cyclopropanecarboxamide]	
≤ 0.1 µM	≤ 0.5 µM	[2H]C([2H])([2H])Nc1ncc(-c2nc3cc(OCC4CC4)ccc3o2)c2cc(NC(=O)[C@H]3C[C@H]3C)ncc12 [Example 456, (1S,2R)—N-(5-(5-(cyclopropylmethoxy)benzo[d]oxazol-2-yl)-8-((methyl-d3)amino)-2,7-naphthyridin-3-yl)-2-methylcyclopropane-1-carboxamide]	
≤ 0.1 µM	≤ 0.5 µM	CNc1ncc(-c2nc3ccc(N4C[C@@H](C)O[C@@H](C)C4)cn3n2)c2cc(NC(=O)CC(F)(F)F)ncc12 [Example 556, N-(5-(6-((2R,6S)-2,6-dimethylmorpholino)-[1,2,4]triazolo[1,5-a]pyridin-2-yl)-8-(methylamino)-2,7-naphthyridin-3-yl)-3,3,3-trifluoropropanamide]	
≤ 0.1 µM	≤ 0.5 µM	CNc1ncc(-c2nc3ccc(N4CCO[C@H](C)C4)cn3n2)c2cc(Nc3ccccn3)ncc12 [Example 551, (R)—N^1-methyl-4-(6-(2-methylmorpholino)-[1,2,4]triazolo[1,5-a]pyridin-2-yl)-N^6-(pyridin-2-yl)-2,7-naphthyridine-1,6-diamine]	
≤ 0.1 µM	≤ 0.5 µM	CNc1ncc(-c2nc3cc(N4CCO[C@H](C)C4)ccc3o2)c2cc(NC(=O)[C@@H]3C[C@@H]3F)ncc12 [Example 418, (1S,2S)-2-fluoro-N-(8-(methylamino)-5-(5-((R)-2-methylmorpholino)benzo[d]oxazol-2-yl)-2,7-naphthyridin-3-yl)cyclopropane-1-carboxamide]	
	≤ 0.5 µM	CNc1ncc(-c2nc3ccc(N4CCOCC4)cn3n2)c2cc(NC(=O)C3(F)CC3)nnc12 [Example 886, 1-fluoro-N-(8-(methylamino)-5-(6-morpholino-[1,2,4]triazolo[1,5-a]pyridin-2-yl)pyrido[3,4-c]pyridazin-3-yl)cyclopropane-1-carboxamide]	Kd (TYK2 JH2; [4]): ≤ 0.1 µM
